Drawing on the NIST ThermoML archive (doi:10.1016/j.fluid.2012.06.017), this text covers Critical pressure and Critical temperature for three molecules.

Numbers after ± are expanded uncertainties.

The conditions of this series: Liquid; Pulse-heating method.
Regarding `CC(C)O[Si](OC(C)C)(OC(C)C)OC(C)C` [isopropyl silicate ((C3H7O)4Si)], the Critical pressure was determined as 1310 ± 80 kPa and the Critical temperature is 587 ± 12 K.
For `CC(C)(C)[O-].CC(C)(C)[O-].CC(C)(C)[O-].CC(C)(C)[O-].[Ti+4]` [titanium(IV) 2-methylpropan-2-olate], in that order: 1070 ± 60 kPa and 657 ± 14 K.
As to `CC(C)[O-].CC(C)[O-].CC(C)[O-].CC(C)[O-].[Ti+4]` [titanium(IV) 2-propanolate], the Critical pressure amounted to 1140 ± 60 kPa and the Critical temperature was found to be 641 ± 12 K.
